Laboratory results from article PMC7673538 (PLoS Biology, 2020).
Several values for one entry are separate records, joined by “and”; a condition that tells them apart may be missing. Equal values may be shown once. Read-outs that look alike come from different tables or passages of the source.

Legend:
EV-A71 = assay: microbe, parasite or virus in culture; assay type: cell-based, enterovirus A71; details: for EC50: Enterovirus A
CV-A24 = assay: microbe, parasite or virus in culture; assay type: cell-based, coxsackievirus A24
EV-D68 (strain Fermon) = assay type: cell-based, enterovirus D68
[1] = tested on: all representative viruses; assay type: cell-based
CV-B3 (strain Nancy) = assay type: cell-based, coxsackievirus B3
[2] = EVA71, HeLa R19, read-out: EC50 Average
[3] = EVA71, HeLa R19, read-out: EC50 EV-A71
[4] = EVA71, HeLa R19, read-out: EC50 EV-A71 strain BrCr
[5] = EVA71, HeLa R19, read-out: EC50 EV-A71 strain TW/2728/04
[6] = EVA71, HeLa R19, read-out: EC50 EV-A71 strain TW/2945/98
[7] = EVA71, HeLa R19, read-out: EC50 EV-A71 strain TW/70811/08
[8] = EVA71, HeLa R19, read-out: EC50 EV-A71 strain TW/72232/04
[9] = EVA71, HeLa R19, read-out: EC50 EV-A71 strain TW/96016/08
[10] = Enterovirus C, CVA24, HeLa R19, read-out: EC50 CV-A24
[11] = Enterovirus C, CVA24, HeLa R19, read-out: EC50 CV-A24 strain Joseph
[12] = Enterovirus C, CVA24, HeLa R19, read-out: EC50 Exp1
[13] = Enterovirus C, CVA24, HeLa R19, read-out: EC50 Exp2

Compound | EC50 (EV-A71; [2]) | EC50 (EV-A71; [3]) | EC50 (EV-A71; [4]) | EC50 (EV-A71; [5]) | EC50 (EV-A71; [6]) | EC50 (EV-A71; [7]) | EC50 (EV-A71; [8]) | EC50 (EV-A71; [9]) | EC50 (CV-A24; [10]) | EC50 (CV-A24; [11]) | EC50 (CV-A24; [12]) | EC50 (CV-A24; [13]) | EC50 (CV-A24; read-out: EC50 Exp1) | EC50 (CV-A24; read-out: EC50 Exp2) | other results
O=C(c1ccco1)N(Cc1ccc(F)cc1)c1ccccc1 [Compound 19b, N-(4-Fluorobenzyl)-N-phenylfuran-2-carboxamide] | 2020 nM | 890 ± 90 nM | 1120 ± 150 nM | 2100 ± 80 nM | 2020 ± 150 nM | 920 ± 170 nM | 3830 ± 250 nM | 1890 ± 20 nM | 6390 ± 740 nM | 4990 ± 610 nM | 5650 nM | 7120 nM | 4380 nM | 5600 nM | EC50 (EV-A71; EVA71 / genotype 2c, HeLa R19, read-out: EC50 EV-A71 WT): 820 ± 120 nM
O=C(c1ccco1)N(Cc1ccc(C(F)(F)F)cc1)c1ccccc1 [Compound 19d, N-phenyl-N-(4-(trifluoromethyl)benzyl)furan-2-carboxamide] | 1290 nM | 270 ± 120 nM | 1680 ± 620 nM | 2330 ± 1230 nM | 2900 ± 1030 nM | 754 ± 10 nM | 2540 ± 1720 nM | 1940 ± 820 nM | 19500 ± 550 nM | 18600 ± 670 nM | 19000 nM | 20100 nM | 18000 nM | 19300 nM | resistance of reverse-engineered EV-A71 2C M193L (in words) (EV-A71): conferred 19d resistance; resistance of reverse-engineered EV-A71 2C M193L/R151H (in words) (EV-A71): further increased the resistance; resistance of reverse-engineered EV-A71 2C M193L/R151H/T133S (in words) (EV-A71): slightly further increased resistance; resistance of reverse-engineered EV-A71 2C R151H (in words) (EV-A71): did not confer resistance; multicycle replication assay read-out, EV-A71(BrCr) (EV-A71; 0.2344 µM): 5.8952 and 4.978 and 5.24; multicycle replication assay read-out, EV-A71(BrCr) (EV-A71; 0.4688 µM): 6.681 and 6.55 and 6.0262; multicycle replication assay read-out, EV-A71(BrCr) (EV-A71; 1.875 µM): 102.314 and 101.266 and 100.218; multicycle replication assay read-out, EV-A71(BrCr) (EV-A71; 3.75 µM): 101.266 and 99.5633 and 96.5502; multicycle replication assay read-out, EV-A71(BrCr) (EV-A71; 7.5 µM): 100.48 and 99.0393 and 95.2402; multicycle replication assay read-out, EV-A71(BrCr) (EV-A71; 15 µM): 94.1921 and 92.2271 and 88.5589; multicycle replication assay read-out, EV-A71(BrCr) (EV-A71; 30 µM): 98.1223 and 94.4541 and 90.524; virus titer, TCID50/ml (Figure 2A) (EV-D68 (strain Fermon); compound concentration 0.01 µM): 6000000 TCID50/ml and 4677352 TCID50/ml and 3162278 TCID50/ml; virus titer, TCID50/ml (Figure 2A) (EV-D68 (strain Fermon); compound concentration 0.1 µM): 5888437 TCID50/ml and 6000000 TCID50/ml and 3162278 TCID50/ml; virus titer, TCID50/ml (Figure 2A) (EV-D68 (strain Fermon); compound concentration 0.3 µM): 6000000 TCID50/ml and 3548134 TCID50/ml; virus titer, TCID50/ml (Figure 2A) (EV-D68 (strain Fermon); compound concentration 10 µM): 31622.8 TCID50/ml and 21379.6 TCID50/ml and 35481.3 TCID50/ml; cytotoxic effect in parallel to single-cycle assay (in words) (HeLa R19 cells): none of them showed any cytotoxic effect; Cytotoxicity values, % compared to DMSO (Figure 2B) (HeLa R19 cells; compound concentration 0.01 µM): 101.341%; inhibition in single-cycle viral replication assay (in words) [1]: inhibited all representative viruses; virus titer, TCID50/ml (Figure 2A) (CV-B3 (strain Nancy); compound concentration 10 µM): 2187.76 TCID50/ml and 1625.6 TCID50/ml; virus titer, TCID50/ml (Figure 2A) (CV-B3 (strain Nancy); compound concentration 30 µM): 2187.76 TCID50/ml and 1479.11 TCID50/ml
